For data set [1], the system named is vaccinia virus (strain Copenhagen). Kind of data set: microbe, parasite or virus in culture. The class given is cell-based.
Data set [2] has the same test system. It is filed as cell-based.
Another data set concerns vaccinia virus. To be noted: previously reported against vaccinia; ref Yang et al., 2005; cited from earlier work.
Another data set in a line: in vitro. The following applies: human, CC50, HeLa cell monolayers; 24 h incubation; WST-1.
For data set [3], the system named is vaccinia virus DNA replication. The class given is cell-based.
Another data set concerns HeLa cells. The following applies: HeLa cell monolayers; 24 h incubation; WST-1.
Data set [4] concerns vaccinia virus Western Reserve (WR) strain. Briefly: microbe, parasite or virus in culture. It is filed as cell-based.
Data set [5] concerns vaccinia virus (strain Copenhagen). It is filed as cell-based. To be noted: 0.2 μM.
For data set [6] the test system is unchanged. The class given is cell-based. The following applies: 0.2 μM. The source holds these as a separate data set.
A further data set deals with myxoma virus. It is filed as cell-based. The following applies: HeLa cells, 2 μM, MOI 0.1.
In data set [7] the test system is vaccinia virus gene transcription (D12, A1, A17). It is filed as cell-based. The following applies: 2 μM.
Data set [8] has as its system vaccinia virus protein expression (D12, G8, H3). The class given is cell-based. To be noted: 2 μM.
Data set [9] relates to Plasmodium vinckei petteri. To be noted: mice; ref Adovelande and Schrevel, 1996; cited from earlier work.

“And” between values parts separate entries of the source, which are not always exact repeats. Identical values can stand only once. Like-named read-outs stand apart in the source and are kept apart here.

For `O=C(NN1C(=O)[C@@H]2[C@@H]3C=C[C@@H]([C@H]4C[C@@H]34)[C@@H]2C1=O)c1ccc(C(F)(F)F)cc1` [ST-246], the IC50 in [1] (Orthopoxvirus vaccinia, HeLa) is ~0.0094 µM; in the data set on vaccinia virus, 0.01 µM. In addition, in [2], the “reduction in virus titres” value was “approximately 7.4 fold”. The CC50 in “in vitro” was > 1000 µM.
With `Nc1ccn([C@@H]2O[C@H](CO)[C@@H](O)[C@@H]2O)c(=O)n1` [araC, cytosine arabinoside], in [3] (50 μg/mL), the “abundance of the A1 gene at 8 hpi (viral DNA replication)” value is “no significant increase in the abundance of the A1 gene”.
`C/C=C/[C@H]1O[C@@](O)([C@@H](C)[C@H](O)[C@H](C)[C@H]2OC(=O)/C(OC)=C/C(C)=C/[C@@H](C)[C@@H](O)[C@@H](CC)[C@@H](O)[C@H](C)C/C(C)=C/C=C/[C@@H]2OC)C[C@@H](O[C@H]2C[C@@H](O)[C@H](OC(N)=O)[C@@H](C)O2)[C@@H]1C` [Concanamycin A] came in with a Selectivity index in data set [1] of 7941. Further, the IC50 in data set [1] (Orthopoxvirus vaccinia, HeLa) was ~0.0017 µM. This compound displayed a CC50 in the data set “in vitro” of 13.5 ± 5.7 µM.
Consider `C/C=C/[C@H]1O[C@@](O)([C@@H](C)[C@H](O)[C@H](C)[C@H]2OC(=O)/C(OC)=C/C(C)=C/[C@@H](C)[C@@H](O)[C@@H](C)[C@@H](O)[C@H](C)C/C(C)=C/C=C/[C@@H]2OC)C[C@@H](O[C@H]2C[C@@H](O)[C@H](OC(N)=O)[C@@H](C)O2)[C@@H]1C` [Concanamycin B], for which the IC50 in data set [1] is ~0.011 µM and 0.011 µM. For the same compound, the midpoint of cytotoxicity in the data set with HeLa cells, the CC50, lay at 21.4 ± 0.6 µM.
`CC[C@@]1([C@@H]2O[C@@H]([C@H]3O[C@@](O)(CO)[C@H](C)C[C@@H]3C)C[C@@H]2C)CC[C@H]([C@]2(C)CC[C@]3(C[C@H](O)[C@@H](C)[C@@H]([C@@H](C)[C@@H](OC)[C@H](C)C(=O)O)O3)O2)O1` [Monensin] showed a Selectivity index in data set [1] of 1065. The IC50 in [1] (Orthopoxvirus vaccinia, HeLa) was ~0.0216 µM. Further, the “reduction in virus titres” value in data set [2] is reported as “approximately 20 fold”. The CC50 in the data set “in vitro” turned out to be 23 ± 2.9 µM.
`CO[C@@H]1C[C@@H](C[C@H]2CC[C@H](C)[C@H]([C@@H](C)C(=O)O)O2)O[C@]2(O[C@](C)([C@H]3CC[C@@](C)([C@@H]4O[C@@H]([C@H]5O[C@@](O)(CO)[C@H](C)C[C@@H]5C)C[C@@H]4C)O3)C[C@H]2C)[C@@H]1C` [Nigericin]: in [1], the Selectivity index is recorded as 1038 (Cop). Besides, the IC50 in data set [1] (Orthopoxvirus vaccinia, HeLa) was ~0.0079 µM. Besides, the Selectivity index in data set [4] was 421 (WR). Also, in data set [4] (Vaccinia virus Western Reserve, HeLa), the IC50 is ~0.0195 µM. Further, in data set [2], the “reduction of virus replication, compound added 4 hpi” value is ~1600 fold and the “vaccinia replication after removal of compound at 1 hpi” value was “vaccinia replication approached the level of untreated controls”. The “decrease in viral titres” value in data set [2] (0.2 μM) was ~10 fold. Further, the “decrease in viral titres” value in data set [5] is ~10 fold. Besides, the “decrease in viral titres” value in data set [6] is given as ~10 fold. In addition, the “reduction in virus titres” value with myxoma virus is given as 676 fold. In addition, in [7], the “reduction of A1 (intermediate) transcript expression” value was ~94%, the “reduction of A17 (late) transcript expression” value is on record as ~98% and the “reduction of D12 (early) transcript expression” value is ~82%. Besides, in data set [3] (2 μM), the “abundance of the A1 gene at 8 hpi (viral DNA replication)” value is recorded as “no significant increase in the abundance of the A1 gene”. Moreover, in [8], the “D12 (early) protein expression” value is given as “partially inhibited”, the “G8 (intermediate) protein expression” value is “very little G8 detected” and the “H3 (late) protein expression” value is “unable to detect H3 protein”. Moreover, the “dosages at which toxicity was observed” value in data set [9] was “above 10 mg kg^−1”.
For `C/C=C/[C@H]1O[C@@](O)([C@@H](C)[C@H](O)[C@H](C)[C@H]2OC(=O)/C(OC)=C/C(C)=C/[C@@H](C)[C@@H](O)[C@@H](CC)[C@@H](O)[C@H](C)C/C(C)=C/C=C/[C@@H]2OC)C[C@@H](O[C@H]2C[C@@H](O)[C@H](O)[C@@H](C)O2)[C@@H]1C` [Concanamycin C], in data set [1], the IC50 is ~0.0028 µM and 0.0028 µM. The midpoint of cytotoxicity in the data set with HeLa cells, the CC50, lay at 15.6 ± 3.2 µM.
With `Nc1ccn(C[C@@H](CO)OCP(=O)(O)O)c(=O)n1` [Cidofovir], the IC50 in [1] (Orthopoxvirus vaccinia, HeLa) was ~110 µM. The “reduction in virus titres” value in data set [2] was “no effect on vaccinia replication”. Besides, the CC50 in “in vitro” was > 1000 µM.

The values are drawn from article PMC9533862 (Antiviral Research, 2010).
